PubChem BioAssay (NCI)
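Where inhibition never reached the appropriate level, the endpoint shown equals the highest concentration tested. Otherwise, values were interpolated linearly from a five-concentration, 48-hour dose response in 96-well plates. TGI denotes the concentration required for complete inhibition of growth.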

What was measured:
Experiment in all cases: inhibition of tumour cell growth, NCI panel, 48 h
T-47D breast = test system: T-47D breast
COLO 205 colon = test system: COLO 205 colon
EKVX NSCLC = test system: EKVX NSCLC
SW-620 colon = test system: SW-620 colon
U251 CNS = test system: U251 CNS
HT29 colon = test system: HT29 colon
UACC-62 melanoma = test system: UACC-62 melanoma
SN12C renal = test system: SN12C renal
CCRF-CEM leukemia = test system: CCRF-CEM leukemia
MDA-MB-231 breast = test system: MDA-MB-231 breast
UO-31 renal = test system: UO-31 renal
HCT-15 colon = test system: HCT-15 colon
MOLT-4 leukemia = test system: MOLT-4 leukemia
NCI/ADR-RES ovarian = test system: NCI/ADR-RES ovarian
MALME-3M melanoma = test system: MALME-3M melanoma
DU-145 prostate = test system: DU-145 prostate
TK-10 renal = test system: TK-10 renal
SK-MEL-28 melanoma = test system: SK-MEL-28 melanoma
NCI-H460 lung = test system: NCI-H460 lung
ACHN renal = test system: ACHN renal
HOP-62 NSCLC = test system: HOP-62 NSCLC
CAKI-1 renal = test system: CAKI-1 renal
NCI-H23 lung = test system: NCI-H23 lung
HCT-116 colon = test system: HCT-116 colon
SK-OV-3 ovarian = test system: SK-OV-3 ovarian
K-562 leukemia = test system: K-562 leukemia
HS 578T breast = test system: HS 578T breast
HOP-92 NSCLC = test system: HOP-92 NSCLC
MCF7 breast = test system: MCF7 breast
NCI-H226 lung = test system: NCI-H226 lung
A549 NSCLC = test system: A549 NSCLC
UACC-257 melanoma = test system: UACC-257 melanoma
SF-295 CNS = test system: SF-295 CNS
MDA-N = test system: MDA-N
OVCAR-5 ovarian = test system: OVCAR-5 ovarian
LOX IMVI melanoma = test system: LOX IMVI melanoma
SNB-19 CNS = test system: SNB-19 CNS
NCI-H522 lung = test system: NCI-H522 lung
M14 melanoma = test system: M14 melanoma
HL-60(TB) leukemia = test system: HL-60(TB) leukemia
A498 renal = test system: A498 renal
OVCAR-8 ovarian = test system: OVCAR-8 ovarian
SK-MEL-5 melanoma = test system: SK-MEL-5 melanoma
SK-MEL-2 melanoma = test system: SK-MEL-2 melanoma
PC-3 prostate = test system: PC-3 prostate
RPMI-8226 leukemia = test system: RPMI-8226 leukemia
OVCAR-4 ovarian = test system: OVCAR-4 ovarian
RXF 393 renal = test system: RXF 393 renal
MDA-MB-435 = test system: MDA-MB-435
BT-549 breast = test system: BT-549 breast
KM12 colon = test system: KM12 colon
SF-268 CNS = test system: SF-268 CNS
SR leukemia = test system: SR leukemia
IGROV1 ovarian = test system: IGROV1 ovarian
786-0 renal = test system: 786-0 renal
HCC-2998 colon = test system: HCC-2998 colon

Measured: TGI

CC1=C(C)C2(C#N)C(=O)N3C(=NC(c4ccccc4)NC3c3ccccc3)C2(C#N)C(c2ccccc2)N1 (stereo unspecified)
> 100 µM: T-47D breast | COLO 205 colon | EKVX NSCLC | SW-620 colon | U251 CNS | HT29 colon | UACC-62 melanoma | SN12C renal | CCRF-CEM leukemia | MDA-MB-231 breast | UO-31 renal | HCT-15 colon | MOLT-4 leukemia | NCI/ADR-RES ovarian | MALME-3M melanoma | DU-145 prostate | TK-10 renal | SK-MEL-28 melanoma | NCI-H460 lung | ACHN renal | HOP-62 NSCLC | CAKI-1 renal | NCI-H23 lung | HCT-116 colon | SK-OV-3 ovarian | K-562 leukemia | HS 578T breast | HOP-92 NSCLC | MCF7 breast | NCI-H226 lung | A549 NSCLC | UACC-257 melanoma | SF-295 CNS | MDA-N | OVCAR-5 ovarian | LOX IMVI melanoma | SNB-19 CNS | NCI-H522 lung | M14 melanoma | HL-60(TB) leukemia | A498 renal | OVCAR-8 ovarian | SK-MEL-5 melanoma | SK-MEL-2 melanoma | PC-3 prostate | RPMI-8226 leukemia | OVCAR-4 ovarian | RXF 393 renal | MDA-MB-435 | BT-549 breast | KM12 colon | SF-268 CNS | SR leukemia | IGROV1 ovarian | 786-0 renal | HCC-2998 colon
